Results reported in patent US10611732B2, “HIV replication inhibiting pyrimidines” (Janssen Pharmaceutica NV, priority 2001, dated 2020).

Tests used:
HIV = test: microbe, parasite or virus in culture; conditions: for IC50: Human immunodeficiency virus 1, MT4, read-out: pIC50 (−log IC50), HIV-infected MT-4 cells (converted); for IC50 / pIC50 (−log IC50): dose achieving 50% protection, MTT, OD 540 nm; for pSI (pCC50-pIC50): selectivity index, ratio of CC50 to IC50, as log difference; for pIC50 (−log IC50): HIV-infected MT-4 cells
Method: (§1) A rapid, sensitive and automated assay procedure was used for the in vitro evaluation of anti-HIV agents. An […] T4-cell line, MT-4, which was previously shown (Koyanagi et al., Int. J Cancer, 36, 445-451, 1985) to be highly susceptible to and permissive for HIV infection, served as the target cell line. Inhibition of the HIV-induced cytopathic effect was used as the end point. The viability of both HIV- and mock-infected cells was assessed spectrophotometrically via the in situ reduction of 3-(4,5-dimethylthiazol-2-yl)-2,5-diphenyltetrazolium bromide (MTT). The 50% cytotoxic concentration (CC50 in M) was defined as the concentration of compound that reduced the absorbance of the mock-infected control sample by 50%. The percent protection achieved by the compound in HIV-infected cells was calculated by the following formula:
(§2) [formula] whereby (ODT)HIV is the optical density measured with a given concentration of the test compound in HIV-infected cells; (ODC)HIV is the optical density measured for the control untreated HIV-infected cells; (ODC)MOCK is the optical density measured for the control untreated mock-infected cells; all optical density values were determined at 540 nm. The dose achieving 50% protection according to the above formula was defined as the 50% inhibitory concentration (IC50 in M). The ratio of CC50 to IC50 was defined as the selectivity index (SI).
(§3) Table 6 lists the pIC50 (−log IC50), pCC50 (−log CC50) and pSI (pCC50-pIC50) values for the compounds of formula (I).

[1] = cytotoxicity in mock-infected MT-4 cells (MTT); conditions: human, mock-infected MT-4 cells
Method: as §1, §2, §3

mock-infected MT-4 cells = test: cytotoxicity in mock-infected MT-4 cells (MTT)
Method: as §1, §2, §3

| Structure (SMILES) | melting point [°C] | IC50 (HIV) [nM] | pSI (pCC50-pIC50) (HIV) | CC50 [1] [nM] | pIC50 (−log IC50) (HIV) | pCC50 (−log CC50) (mock-infected MT-4 cells) [M] |
| --- | --- | --- | --- | --- | --- | --- |
| Cc1cc(/C=C\Cl)cc(C)c1Nc1ccnc(Nc2ccc(C#N)cc2)n1 | 250 | – | – | – | – | – |
| Cc1cc(C=C(Br)Br)cc(C)c1Nc1ccnc(Nc2ccc(C#N)cc2)n1 | 223 | – | – | – | – | – |
| CCCCN(C)C(=O)/C=C/c1cc(C)c(Oc2ccnc(Nc3ccc(C#N)cc3)n2)c(C)c1 | 212 | – | – | – | – | – |
| Cc1ccc(N(C)C)c(C)c1Nc1ccnc(Nc2ccc(C#N)cc2)n1 | 132 | – | – | – | – | – |
| Cc1cc(/C=C/c2cccnc2)cc(C)c1Nc1ccnc(Nc2ccc(C#N)cc2)n1 | 120 | – | – | – | – | – |
| Cc1cc(C(=O)CC#N)cc(C)c1Nc1ccnc(Nc2ccc(C#N)cc2)n1 | 150 | – | – | – | – | – |
| CCOCc1ccc(Oc2ccnc(Nc3ccc(C#N)cc3)n2)c(C)c1 [Compound 105] | 140 | 63.1 | <−3.2 | – | – | – |
| Cc1cc(/C=C(/C#N)C(=O)C(C)(C)C)cc(C)c1Nc1ccnc(Nc2ccc(C#N)cc2)n1 [Compound 106] | 193 | 20 | −2.5 | – | – | – |
| Cc1cc(/C=C(/F)C#N)cc(C)c1Oc1ccnc(Nc2ccc(C#N)cc2)n1 [Compound 110] | 254 | 2.51 | −4.3 | 50100 | – | – |
| Cc1cc(/C=C/C(=O)N(C)C)cc(C)c1Nc1ccnc(Nc2ccc(C#N)cc2)n1 [Compound 112] | > 264 | 0.794 | −4.2 | – | – | – |
| Cc1cc(/C=C/C(=O)N(C)CCC#N)cc(C)c1Nc1ccnc(Nc2ccc(C#N)cc2)n1 [Compound 114] | 168 | 2.51 | −3.5 | – | – | – |
| Cc1cc(-c2ccc(C#N)o2)cc(C)c1Nc1ccnc(Nc2ccc(C#N)cc2)n1 [Compound 126] | > 260 | 3.98 | −3.5 | – | – | – |
| CC(C#N)=Cc1ccc(Oc2ccnc(Nc3ccc(C#N)cc3)n2)c(C)c1 [Compound 231] | – | – | <−5.2 | – | 9.2 | <4.0 |
| CC(=CC#N)c1ccc(Oc2ccnc(Nc3ccc(C#N)cc3)n2)c(C)c1 [Compound 232] | – | – | <−4.4 | – | 8.4 | <4.0 |
| CC(C#N)=Cc1cc(C)c(Nc2ccnc(Nc3ccc(C#N)cc3)n2)c(Cl)c1 [Compound 233] | – | – | −3.6 | – | 9.3 | 5.7 |
| Cc1cc(CCC#N)ccc1Oc1ccnc(Nc2ccc(C#N)cc2)n1 [Compound 234] | – | – | <−4.7 | – | 8.7 | <4.0 |
| Cc1cc(C(C)CC#N)ccc1Oc1ccnc(Nc2ccc(C#N)cc2)n1 (stereo not shown) [Compound 235] | – | – | <−5.3 | – | 9.3 | <4.0 |
| Cc1cc(CC(C)C#N)ccc1Oc1ccnc(Nc2ccc(C#N)cc2)n1 (stereo not shown) [Compound 236] | – | – | <−4.8 | – | 8.8 | <4.0 |
| Cc1cc(/C=C/C#N)ccc1Nc1ccnc(Nc2ccc(C#N)cc2)n1 [Compound 237] | – | – | <−4.9 | – | 8.9 | <4.0 |
| Cc1cc(CC#N)cc(Cl)c1Nc1ccnc(Nc2ccc(C#N)cc2)n1 [Compound 238] | – | – | −3.9 | – | 9.5 | 5.6 |
| Cc1cc(/C=C/C#N)cc(-c2ccco2)c1Nc1ccnc(Nc2ccc(C#N)cc2)n1 [Compound 239] | – | – | −3.9 | – | 8.9 | 5 |
| Cc1cc(CN(C)CCC#N)cc(Br)c1Nc1ccnc(Nc2ccc(C#N)cc2)n1 [Compound 241] | – | – | −4.1 | – | 9.4 | 5.3 |
| N#C/C=C/c1ccc(Nc2ccnc(Nc3ccc(C#N)cc3)n2)c(Br)c1 [Compound 244] | – | – | −5.2 | – | 9.2 | 4 |
| COc1cc(/C=C/C#N)ccc1Nc1ccnc(Nc2ccc(C#N)cc2)n1 [Compound 245] | – | – | −4.8 | – | 8.8 | 4 |
| CC(C#N)=Cc1cc(C)c(Nc2ccnc(Nc3ccc(C#N)cc3)n2)c(Br)c1 [Compound 247] | – | – | −3 | – | 9.2 | 6.2 |
| Cc1cc(/C=C/C#N)cc(Br)c1Nc1ccnc(Nc2ccc(C#N)cc2)n1 [Compound 248] | – | – | −3.5 | – | 9.3 | 5.7 |
| COc1cc(C=C(C)C#N)ccc1Nc1ccnc(Nc2ccc(C#N)cc2)n1 [Compound 249] | – | – | −4.5 | – | 8.5 | 4 |
| COc1cc(CCC#N)ccc1Nc1ccnc(Nc2ccc(C#N)cc2)n1 [Compound 251] | – | – | −3.9 | – | 8.9 | 5 |
